Like-named read-outs stand apart in the source and are kept apart here.
Tests used:
[1] = system: Triticum aestivum; format: in vivo; details: field trial, scored about 4 weeks after application, mean of 2-4 plots
Method: (§1) The seeds or rhizome pieces of the harmful plants and the useful plants were laid out or were present in the soil, and they were grown under natural outdoor conditions. Treatment with the active compounds or active compound combinations was carried out […] before and/or after the emergence of the plants, generally at the 2- to 4-leaf stage, in various dosages using a water application rate of 100 to 400 l/ha (converted).
(§2) After the application (about 4 weeks after the application), the effectiveness of the active compounds or active compound combinations was scored visually by comparing the treated plots to untreated control plots. During scoring, damage and development of all above-ground parts of plants was assessed. Scoring was carried out using a percentage scale (100% effect=all plants have died; 50% effect=50% of the plants and the green parts of the plants have died; 0% effect=no effect observed=like control plot). In each case, the mean score of 2-4 plots was calculated.
(§3) The results are shown in the table below; the effect of the individual application of active compounds (A+B) and C being stated in brackets.

[2] = system: Veronica hederifolia; format: in vivo; details: field trial, scored about 4 weeks after application, mean of 2-4 plots
Method: as §1, §2, §3

[3] = application rate 20 g of active substance/hectare
[4] = application rate 80 g of active substance/hectare
[5] = application rate 15 g of active substance/hectare

CCCOc1nn(C(=O)[N-]S(=O)(=O)c2ccccc2C(=O)OC)c(=O)n1C.[Na+] [propoxycarbazone-sodium]
Triticum aestivum % damage [1, 3]: 1% | Veronica hederifolia % effect [2, 3]: 25%

CCCCCCCC(=O)Oc1c(I)cc(C#N)cc1I [ioxynil-octanoate]
Triticum aestivum % damage [1, 4]: 0% | Veronica hederifolia % effect [2, 4]: 45%

COc1cc(OC)nc(NC(=O)NS(=O)(=O)N(C)S(C)(=O)=O)n1 [amidosulfuron, 1-(4,6-dimethoxypyrimidin-2-yl)-3-mesyl-(methyl)sulfamoylurea]
Triticum aestivum % damage [1, 5]: 0% | Veronica hederifolia % effect [2, 5]: 20%

— patent US20050026783A1, “Herbicide combinations comprising specific sulfonamides” (priority 2003, published 2005)
